Assay results reported in the supplement of paper PMC5579334.
± gives the standard deviation of the averaged measurements.

Columns and labels:
YST-1 [1] = assay: % inhibition of CellTiter-Glo viability at highest tested concentration (72 h), relative to DMSO and benzethonium chloride controls; higher = more inhibition
In short: (§1)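 Viability was scored by CellTiter-Glo ATP luminescence, scaled from vehicle to positive-control wells, with duplicates averaged where present. The cells, MPNST lines and primary human Schwann cells at 750–1000 per well, sat 72 h at 37 °C, 5% CO2, in 384-well plates preprinted with each compound at five concentrations in 10-fold steps. Four-parameter logistic fits were run on the data. These fits give drug sensitivity score and relative IC50 censored at the top concentration, and percent inhibition is reported at the top concentration.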

HS-Sch-2 [2] = assay: as above
In short: as §1

STS26T [3] = assay: as above
In short: as §1

S1507-2 [4] = assay: as above
In short: as §1

S462 [5] = assay: as above
In short: as §1

[6] = test system: HSC1 (primary human Schwann cells); assay: as above
In short: as §1

ST8814 [7] = assay: as above
In short: as §1

HS-PSS [8] = assay: as above
In short: as §1

[9] = test system: HSC2 (primary human Schwann cells); assay: as above
In short: as §1

YST-1 [10] = assay: drug sensitivity score (DSS, CellTiter-Glo viability, 72 h) (DSS (dimensionless)); higher = more sensitive; extreme values may be limits of the assay
In short: as §1

HS-Sch-2 [11] = assay: as above
In short: as §1

STS26T [12] = assay: as above
In short: as §1

S1507-2 [13] = assay: as above
In short: as §1

S462 [14] = assay: as above
In short: as §1

[15] = test system: HSC1 (primary human Schwann cells); assay: as above
In short: as §1

ST8814 [16] = assay: as above
In short: as §1

HS-PSS [17] = assay: as above
In short: as §1

[18] = test system: HSC2 (primary human Schwann cells); assay: as above
In short: as §1

STS26T [19] = assay: drug sensitivity score (DSS, CellTox-Green cytotoxicity, 72 h) (DSS (dimensionless)); higher = more cytotoxic; extreme values may be limits of the assay
In short: (§2)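 MPNST cell lines and primary human Schwann cells were incubated 72 h at 37 °C in 384-well plates holding five 10-fold compound dilutions. CellTox-Green was added before seeding at a final 1:1000 dilution and reported fluorescence from DNA released by disrupted cells. Signals were scaled to vehicle and positive-control wells, and cultures failing plate quality control were dropped. Drug sensitivity score and relative IC50 come from four-parameter logistic fits, with IC50 censored at the top concentration.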

S1507-2 [20] = assay: as above
In short: as §2

[21] = test system: HSC1 (primary human Schwann cells); assay: as above
In short: as §2

ST8814 [22] = assay: as above
In short: as §2

HS-PSS [23] = assay: as above
In short: as §2

[24] = test system: HSC2 (primary human Schwann cells); assay: as above
In short: as §2

Structure (SMILES)	% inhibition (YST-1 [1]) [%]	% inhibition (HS-Sch-2 [2]) [%]	% inhibition (STS26T [3]) [%]	% inhibition (S1507-2 [4]) [%]	% inhibition (S462 [5]) [%]	% inhibition [6] [%]	% inhibition (ST8814 [7]) [%]	% inhibition (HS-PSS [8]) [%]	% inhibition [9] [%]	drug sensitivity score (YST-1 [10])	drug sensitivity score (HS-Sch-2 [11])	drug sensitivity score (STS26T [12])	drug sensitivity score (S1507-2 [13])	drug sensitivity score (S462 [14])	drug sensitivity score [15]	drug sensitivity score (ST8814 [16])	drug sensitivity score (HS-PSS [17])	drug sensitivity score [18]	drug sensitivity score (STS26T [19])	drug sensitivity score (S1507-2 [20])	drug sensitivity score [21]	drug sensitivity score (ST8814 [22])	drug sensitivity score (HS-PSS [23])	drug sensitivity score [24]
Nc1nc(F)nc2c1ncn2[C@@H]1O[C@H](CO)[C@@H](O)[C@@H]1O [Fludarabine] (max concentration tested 10000 nM)	69.7	35	31.6	17.2 ± 10	20 ± 11	27.8	1.25	24.9	48.6	3.5	2.33	2.39	0.851 ± 1.2	0.582 ± 0.72	0.98	0	2.18	2.94	0	0	0	0	0	0
CO[C@H]1[C@@H](N(C)C(=O)c2ccccc2)C[C@@H]2O[C@@]1(C)n1c3ccccc3c3c4c(c5c6ccccc6n2c5c31)C(=O)NC4 [Midostaurin] (max concentration tested 10000 nM)	52.8	73.6	71.8	90.3 ± 1	71.9 ± 4.6	93.2	85.2	56.4	95.5	11.4	12.2	11.5	16.5 ± 1.1	10.7 ± 0.49	21.6	13.9	9.08	20.7	13.4	6.96 ± 1.9	11.9	11.1	0	19.4
COc1cc2c(NC3CCN(C(C)C)CC3)nc(C3CCCCC3)nc2cc1OCCCN1CCCC1 [UNC0638] (max concentration tested 10000 nM)	100	101	99.1	99.6 ± 1	98.9 ± 1.6	21.5	98.6	101	14.9	6.1	7.32	5.05	8.72 ± 0.32	6.31 ± 2.1	0.362	6.45	8.75	0.116	5.16	23.4 ± 25	0	7.41	6.72	0
Cc1c2oc3c(C)ccc(C(=O)N[C@@H]4C(=O)N[C@H](C(C)C)C(=O)N5CCC[C@H]5C(=O)N(C)CC(=O)N(C)[C@@H](C(C)C)C(=O)O[C@@H]4C)c3nc-2c(C(=O)N[C@@H]2C(=O)N[C@H](C(C)C)C(=O)N3CCC[C@H]3C(=O)N(C)CC(=O)N(C)[C@@H](C(C)C)C(=O)O[C@@H]2C)c(N)c1=O [Dactinomycin] (max concentration tested 1000 nM)	101	102	99	87 ± 3.5	99.1 ± 1.6	83	85.6	86.7	89.2	37.4	32.5	31.9	23.4 ± 0.57	32.3 ± 1.7	30.8	25.3	25.1	33.5	25.8	5.68 ± 3.9	12.7	5.68	6.19	14.7
NC1(c2ccc(-c3nc4ccn5c(=O)[nH]nc5c4cc3-c3ccccc3)cc2)CCC1 [MK-2206] (max concentration tested 1000 nM)	46.2	13.3	29.9	23.8 ± 1.6	10.5 ± 1.5	11	2.43	18	-3.64	4.28	0.49	2.7	2.75 ± 0.87	0.275 ± 0.12	0.083	0	1.05	0	0	0	0	0	0	0
CC(=O)O[C@@]12CO[C@@H]1C[C@H](O)[C@@]1(C)C(=O)[C@H](O)C3=C(C)[C@@H](OC(=O)[C@H](O)[C@@H](NC(=O)OC(C)(C)C)c4ccccc4)C[C@@](O)([C@@H](OC(=O)c4ccccc4)[C@H]21)C3(C)C [Docetaxel] (max concentration tested 1000 nM)	75.9	96.2	99.9	83.195 ± 0.0062	96.9 ± 1.2	71.7	89.2	52.7	74.4	29.1	30.8	35.5	20.5 ± 0.58	36.7 ± 1.5	21.9	24.8	15.2	22.3	36	22 ± 1.6	17.3	27.1	0.9	24.4
CC(=O)[C@]1(O)Cc2c(O)c3c(c(O)c2[C@@H](O[C@H]2C[C@H](N)[C@H](O)[C@H](C)O2)C1)C(=O)c1ccccc1C3=O [Idarubicin] (max concentration tested 1000 nM)	101	102	97.8	95.7 ± 1.7	99.5 ± 0.8	94.9	88	92.3	95.5	24.2	15.7	20.5	17.1 ± 2.4	23.5 ± 0.84	18.1	16.2	10.1	17.6	15.8	10.6 ± 0.28	8.63	12.2	5.11	7.65
Nc1ncn([C@@H]2O[C@H](CO)[C@@H](O)[C@H]2O)c(=O)n1 [Azacitidine] (max concentration tested 10000 nM)	22.1	10.9	29.9	3.07 ± 2.9	34.5 ± 9.2	75.2	12.4	15.6	68.2	0.39	0	1.02	0	2.02 ± 0.98	5.39	0.0452	0.1	3.59	0	2.61 ± 3.7	0	0	0	0
O=P1(NCCCl)OCCCN1CCCl (stereo not drawn) [Ifosfamide] (max concentration tested 10000 nM)	11.6	-4.64	-1.13	4.66 ± 16	2.94 ± 0.79	0.661	1.12	-0.44	-1.49	0.08	0	0	0.228 ± 0.32	0	0	0	0	0	0	0	0	0	0	0
CNC(=O)c1ccc(N2C(=S)N(c3cnc(C#N)c(C(F)(F)F)c3)C(=O)C23CCC3)cc1F [ARN 509] (max concentration tested 10000 nM)	5.31	3.75	2.87	1.5 ± 14	5.15 ± 0.46	-4.96	9.08	11.9	-11.5	0	0	0	0	0	0	0	2.56	0	0.407	0.0953 ± 0.14	0	0	0	0
Nc1ccccc1NC(=O)c1ccc(CNc2nccc(-c3cccnc3)n2)cc1 [Mocetinostat] (max concentration tested 10000 nM)	100	101	87.5	95.338 ± 0.088	94.19 ± 0.4	83.9	93.5	88	87.2	15	9.89	8.68	8.06 ± 0.65	15.4 ± 0.54	9.63	8.59	6.61	10.5	6.23	5.36 ± 2.5	4.7	5.01	4.26	6.39
CC/C(=C(\c1ccccc1)c1ccc(OCCN(C)C)cc1)c1ccccc1 [Tamoxifen] (max concentration tested 10000 nM)	29.6	61.6	22	35.2 ± 12	24.9 ± 13	14.8	65.2	55.4	52.1	1.24	4.43	0.653	1.29 ± 0.79	0.757 ± 0.86	0.133	3.39	2.37	2.59	0.396	3.75 ± 4.3	0	6.84	0	0
